# Source: US20070295251A1, “EPSP SYNTHASES: COMPOSITIONS AND METHODS OF USE” (Athenix Corporation, priority 2006, published 2007)
# Changes are numbered by the printed parent chain.
# B1: GRG1(EVO5): GRG1 Q-loop variant from Library 4 (SEQ ID NO:56) (protein)
# chain: MKVTIQPGDLTGIIQSPASKSSMQRACAAALVAKGISEIINPGHSNDDKAARDIVSRLGARLEDQPDGSLQITSEGVKPVAPFIECGESGLSSRIFTPLVALSKEEVTIKGSGSLVTRPMDFFDEILPHLGVKVKSNQGKLPLVIQGPLKPADVTVDGSLSSQFLTGLLLAYAAADASDVAIKVTNLKSRPYIDLTLDVMKRFGLKTPENRNYEEFYFKAGNVYDETKMQRYTVEGDWSGGAFLLVAGAIAGPITVRGLDIASTQADKAIVQALMSANAGIAIDAKEIKLHPADLNAFEFDATDCPDLFPPLVALASYCKGETKIKGVSRLAHKESDRGLTLQDEFGKMGVEIHLEGDLMRVIGGKGVKGAEVSSRHDHRIAMACAVAALKAVGETTIEHAEAVNKSYPDFYSDLKQLGGVVSLNHQFNFS
# modifications: GRG1 variant - GRG1(EVO5)
# B2: GRG1(5.2.B6): GRG1(EVO5) with V351 to A change (SEQ ID NO:58) (protein)
# chain: B1 chain with I95L, N186K
# modifications: GRG1 variant - GRG1(EVO7)
# B3: GRG1(EVO6): GRG1(EVO5) with N186 to K change (SEQ ID NO:57) (protein)
# chain: B1 chain with N186K
# modifications: GRG1 variant - GRG1(EVO6)
# Legend:
# [1] = tested on: EPSP synthase
# Description: For any one glyphosate concentration, EPSP synthase activity was measured as a function of a broad range of PEP concentrations. The data were fit to the Michaelis-Menten equation using […]® software (Synergy Software) and used to determine the Km (Km apparent) of the EPSP synthase at that glyphosate concentration.
# [2] = tested on: BL21*DE3 competent E. coli cells; assay: Screening for glyphosate resistance on plates (growth on M63+ agar with glyphosate); format: cell-based; conditions: kanamycin, IPTG, glyphosate concentration as in value
# Description: Library ligations were transformed into BL21*DE3 competent E. coli cells (Invitrogen). The transformations were performed according to the manufacturer's instructions with the following modifications. After incubation for 1 hour at 37° C. in SOC medium, the cells were sedimented by centrifugation (5 minutes, 1000×g, 4° C.). The cells were washed with 1 ml M63+, centrifuged again, and the supernatant decanted. The cells were washed a second time with 1 ml M63+ and resuspended in 200 ul M63+.
# For selection of mutant GRG1 enzymes conferring glyphosate resistance in E. coli, the cells were plated onto M63+ agar medium plates containing 50 mM glyphosate, 0.05 mM IPTG (isopropyl-beta-D-thiogalactopyranoside), and 50 ug/ml kanamycin. M63+ medium contains 100 mM KH2PO4, 15 mM (NH4)2SO4, 50 μM CaCl2, 1 μM FeSO4, 50 μM MgCl2, 55 mM glucose, 25 mg/liter L-proline, 10 mg/liter thiamine HCl, sufficient NaOH to adjust the pH to 7.0, and 15 g/liter agar. The plates were incubated for 36 hours at 37° C.
# [3] = target: GRG1 EPSP synthase variant EVO4, SEQ ID NO:43 (Q-loop core position 2 N, 10 I, 14 A, 16 I) (Pseudomonas putida, UniProt Q683S1, D85N/T97A); assay: EPSP synthase kinetics (AMPLEX Red fluorescence assay); format: biochemical; conditions: in words
# Description: (§3) Extracts were typically incubated with all assay components except shikimate-3-phosphate and AMPLEX™ Red for 5 minutes at room temperature, and assays were started by adding shikimate-3-phosphate and AMPLEX® Red.
# (§4) Following full determination of kinetic parameters, the kinetic constants were determined as follows, adjusting for the quantity of protein determined by either antibody dot-blot analysis as described herein, or by Bradford Assay, as known in the art.
# [4] = target: GRG1 EPSP synthase variant EVO3, SEQ ID NO:37 (Q-loop core position 2 K, 10 G, 14 P, 16 L) (Pseudomonas putida, UniProt Q683S1, D85K/I93G/I99L/T97P); assay: as above; format: biochemical; conditions: in words
# Description: as §3, §4
# [5] = target: GRG1 EPSP synthase variant EVO2, SEQ ID NO:5 (clone L1-C; Q-loop core position 12 A) (Pseudomonas putida, UniProt Q683S1, M95A); assay: as above; format: biochemical; conditions: in words, relative to GRG1
# Description: as §3, §4
# [6] = target: GRG1 EPSP synthase variant GRG1(EVO1), SEQ ID NO:28 (Q-loop core position 10 M, 12 L, 16 F) (Pseudomonas putida, UniProt Q683S1, I93M/I99F/M95L); assay: as above; format: biochemical; conditions: in words, relative to GRG1
# Description: as §3, §4
# [7] = tested on: maize plants expressing GRG1(EVO5); assay: Glyphosate spray of transgenic maize plants; format: in vivo; conditions: 14 mM glyphosate spray
# Excerpt: (§1) The grg1 (evo5) gene and grg1 (evo6) genes were each cloned into a plant expression vector suitable for Agrobacterium-mediated transformation, such vector containing at least (1) a promoter capable of expression in a plant cell, (2) a chloroplast peptide leader coding sequence, (3) a transcriptional terminator. The resulting clones, pAX4014 and pAX4032 respectively, were transferred to Agrobacterium as known in the art and described herein, and the resulting Agrobacterium strain used to develop transgenic maize callus and ultimately transgenic maize plants.
# (§2) To transgenic plants were sprayed with glyphosate formulations of 14 mM glyphosate after adaptation to soil, and the resistance to the herbicide was scored after two weeks relative to non-transgenic controls.
# [8] = tested on: maize plants expressing GRG1(EVO6); assay: Glyphosate spray of transgenic maize plants; format: in vivo; conditions: 14 mM glyphosate spray
# Excerpt: as §1, §2
# [9] = Description: DNA from grg1 (evo5) was mutagenized by PCR as known in the art, and cloned into pRSF1b (Invitrogen), and a library of mutagenized clones identified by virtue of growth on 50 mM glyphosate.
molecule,measurement,setting,value
GRG1(EVO8): variant after mutagenesis of grg1 (evo6) in the Q-loop region (SEQ ID NO:65) (ITSEGVKPVAPFIKCGESGLSGRMFPPIVALSK; GRG1 variant - GRG1(4S-60)),kinetic properties / parameters (in words),[1],further improved kinetic properties over GRG1(EVO6)
same,growth on glyphosate plates (glyphosate resistance in E. coli),[2],glyphosate resistant
"O=C(O)CNCP(=O)(O)O [glyphosate, N-phosphonomethylglycine]",Ki for glyphosate,[3]; relative to GRG1,improved
same,Ki for glyphosate,[4]; relative to GRG1,improved
same,Ki for glyphosate,[5],improved
same,Ki for glyphosate,[6],improved
same,Seed Set,[7],YES
same,Survival at 2 weeks post-spray,[7],YES
same,Chlorosis,[7]; two weeks,NONE
same,Stunting,[7]; two weeks,NONE
same,Seed Set,[8],YES
same,Survival at 2 weeks post-spray,[8],YES
same,Chlorosis,[8]; two weeks,NONE
same,Stunting,[8]; two weeks,NONE
GRG1(EVO7): variant after mutagenesis of grg1 (evo6) in the Q-loop region (SEQ ID NO:64) (ITSEGVKPVAPFIKCGESGLSVRAFTPIVALSK; GRG1 variant - GRG1(4S-39)),kinetic properties / parameters (in words),[1],further improved kinetic properties over GRG1(EVO6)
same,growth on glyphosate plates (glyphosate resistance in E. coli),[2],glyphosate resistant
"C=C(OP(=O)(O)O)C(=O)O [PEP, phosphoenolpyruvic acid]",Km for PEP,[3],"reasonable, though somewhat elevated"
same,Km for PEP,[4]; vs GRG1,virtually identical to GRG1
B1,Km / affinity for PEP (in words),[1],good affinity for PEP
same,"glyphosate resistance (in words, kinetic analysis)",[1]; relative to GRG1,improved glyphosate resistance
B2,soluble protein,[9],substantial increase in soluble protein
B3,soluble protein,[9],substantial increase in soluble protein
